According to DBAASP:
In brackets after ≈: the same amount, converted by molar mass.

Experiments:
Assay in all cases: ≥ marks a high value that may be exact or a test limit, other limits are often not marked, values filed in µg/mL are converted to µM
[1] = tested on: Candida albicans ATCC 90028
[2] = tested on: Staphylococcus aureus NCTC 8325
[3] = tested on: Escherichia coli ATCC 25922
[4] = tested on: Salmonella enterica subsp. enterica serovar Typhimurium C77-31
[5] = tested on: Staphylococcus epidermidis ATCC 12228
[6] = tested on: Staphylococcus aureus ATCC 29213
[7] = tested on: Staphylococcus aureus ATCC 25923
Escherichia coli UB1005 = tested on: Escherichia coli UB1005
Escherichia coli B = tested on: Escherichia coli B
Pseudomonas aeruginosa = tested on: Pseudomonas aeruginosa
Staphylococcus aureus = tested on: Staphylococcus aureus
Bacillus subtilis 168 = tested on: Bacillus subtilis 168
Acinetobacter baumannii = tested on: Acinetobacter baumannii
Escherichia coli = tested on: Escherichia coli
[8] = tested on: Escherichia coli DH5alpha
Escherichia coli JW0013 = tested on: Escherichia coli JW0013

Work on `CC[C@H](C)[C@@H]1NC(=O)[C@@H](NC(=O)[C@H](CCCCN)NC(=O)[C@H](CC(C)C)NC(=O)CNC(=O)[C@H](CCC(N)=O)NC(=O)[C@H](CC(C)C)NC(=O)[C@H](CC(C)C)NC(=O)[C@H](CCCCN)NC(=O)CNC(=O)[C@H](C)NC(=O)[C@H](CC(C)C)NC(=O)CNC(=O)[C@H](CCCCN)NC(=O)[C@H](CC(C)C)NC(=O)[C@@H](NC(=O)[C@H](CC(=O)O)NC(=O)[C@H](CC(C)C)NC(=O)[C@H](Cc2ccccc2)NC(=O)[C@H](CC(C)C)NC(=O)CN)[C@@H](C)O)CSSC[C@@H](C(=O)N[C@@H](CCCCN)C(=O)N2CCC[C@H]2C(=O)O)NC(=O)CNC(=O)[C@H](C)NC(=O)[C@H](CCCCN)NC1=O` [GLFLDTLKGLAGKLLQGLKCIKAGCKP] yielded an MIC [1] of at least 46 µM, an MIC [2] of at least 40 µM and an MIC [3] of 2 µM (≈ 5.57 µg/mL).
Work on `CC(C)C[C@H](NC(=O)[C@H](CCCN=C(N)N)NC(=O)[C@H](CCCCN)NC(=O)[C@H](CCCN=C(N)N)NC(=O)[C@@H](NC(=O)[C@H](CCCCN)NC(=O)[C@H](CCCCN)NC(=O)[C@H](CCCN=C(N)N)NC(=O)[C@H](CC(C)C)NC(=O)[C@H](CCCN=C(N)N)NC(=O)[C@@H](N)CCCN=C(N)N)[C@@H](C)O)C(=O)N[C@@H](CCCCN)C(N)=O` [RRLRKKTRKRLK] yielded an MIC [4] of at least 128 µM, an MIC [5] of over 128 µM and an MIC [3] of over 128 µM. For the same compound, the MIC [6] was over 128 µM, the MIC [7] was over 128 µM and the MIC (Escherichia coli UB1005) was at least 64 µM.
`CC[C@H](C)[C@H](NC(=O)[C@H](Cc1cnc[nH]1)NC(=O)[C@H](CCCCN)NC(=O)[C@H](CC(C)C)NC(=O)[C@H](CC(C)C)NC(=O)[C@H](Cc1cnc[nH]1)NC(=O)[C@H](CCSC)NC(=O)[C@H](Cc1c[nH]c2ccccc12)NC(=O)[C@H](CCCCN)NC(=O)CN)C(=O)N[C@@H](CC(C)C)C(=O)N[C@@H](CCCCN)C(N)=O` [GKWMHLLKHILK] showed an MIC (Escherichia coli B) of 2.2 µM (≈ 3.31 µg/mL), an MIC (Pseudomonas aeruginosa) of 46.7 µM (≈ 70.2 µg/mL) and an MIC (Staphylococcus aureus) of 12.5 µM (≈ 18.8 µg/mL). It also gave an MIC (Bacillus subtilis 168) of 1.1 µM (≈ 1.65 µg/mL).
`CC(C)C[C@H](NC(=O)[C@H](CCCN=C(N)N)NC(=O)[C@@H](NC(=O)[C@H](CCCN=C(N)N)NC(=O)[C@@H](NC(=O)[C@H](CCCCN)NC(=O)[C@@H](NC(=O)[C@H](CCCN=C(N)N)NC(=O)[C@H](CC(C)C)NC(=O)[C@H](CCCN=C(N)N)NC(=O)[C@@H](N)C(C)C)C(C)C)[C@@H](C)O)C(C)C)C(=O)N[C@@H](CCCCN)C(N)=O` [VRLRVKTRVRLK] gave an MIC [4] of 16 µM (≈ 24.4 µg/mL), an MIC [5] of 32 µM (≈ 48.7 µg/mL) and an MIC [3] of 4 µM (≈ 6.09 µg/mL). It also gave an MIC [6] of 16 µM (≈ 24.4 µg/mL), an MIC [7] of 64 µM (≈ 97.5 µg/mL) and an MIC (Escherichia coli UB1005) of 4 µM (≈ 6.09 µg/mL).
With `CC[C@H](C)[C@H](NC(=O)CNC(=O)[C@H](C)NC(=O)[C@@H](NC(=O)[C@@H](NC(=O)[C@@H]1CCCN1C(=O)[C@H](CC(C)C)NC(=O)[C@@H](N)Cc1ccccc1)[C@@H](C)CC)[C@@H](C)CC)C(=O)N[C@@H](C)C(=O)N[C@@H](C)C(=O)N[C@@H](CCCCN)C(=O)N[C@H](C(=O)N[C@@H](Cc1ccccc1)C(=O)N1CCC[C@H]1C(=O)N[C@@H](CCCCN)C(=O)N[C@H](C(=O)N[C@@H](Cc1ccccc1)C(=O)N[C@H]1CSSC[C@@H](C(=O)O)NC(=O)[C@H](CCCCN)NC(=O)[C@H](CCCCN)NC(=O)[C@H](CO)NC(=O)[C@H]([C@@H](C)CC)NC(=O)[C@H](C)NC1=O)[C@@H](C)CC)C(C)C` [FLPIIAGIAAKVFPKIFCAISKKC] the MIC [1] was 7 µM (≈ 18 µg/mL), the MIC [2] was 5 µM (≈ 12.9 µg/mL) and the MIC [3] was 14 µM (≈ 36.1 µg/mL).
For `C[C@@H](O)[C@H](NC(=O)[C@H](CCCN=C(N)N)NC(=O)[C@H](Cc1c[nH]c2ccccc12)NC(=O)[C@H](CCCN=C(N)N)NC(=O)[C@@H](NC(=O)[C@H](CCCN=C(N)N)NC(=O)[C@H](Cc1c[nH]c2ccccc12)NC(=O)[C@H](CCCN=C(N)N)NC(=O)[C@@H](NC(=O)[C@H](CCCN=C(N)N)NC(=O)[C@@H](N)Cc1c[nH]c2ccccc12)[C@@H](C)O)[C@@H](C)O)C(=O)N[C@@H](CCCN=C(N)N)C(N)=O` [WRTRWRTRWRTR], the MIC (Acinetobacter baumannii) was at least 32 µM, the MIC [4] was 4 µM (≈ 7.26 µg/mL) and the MIC (Pseudomonas aeruginosa) was over 64 µM. The MIC [5] was 8 µM (≈ 14.5 µg/mL), the MIC [3] was 4 µM (≈ 7.26 µg/mL) and the MIC (Staphylococcus aureus) was 4 µM (≈ 7.26 µg/mL). For the same compound, the MIC [6] was 4 µM (≈ 7.26 µg/mL), the MIC [7] was 8 µM (≈ 14.5 µg/mL) and the MIC (Escherichia coli UB1005) was 4 µM (≈ 7.26 µg/mL). It also gave an MIC (Escherichia coli) of 2 µM (≈ 3.63 µg/mL).
`CC[C@H](C)[C@H](NC(=O)CNC(=O)[C@H](CCC(N)=O)NC(=O)[C@H](Cc1ccccc1)NC(=O)[C@@H](NC(=O)[C@H](CCCCN)NC(=O)[C@H](CCCCN)NC(=O)[C@H](CC(C)C)NC(=O)[C@H](C)NC(=O)[C@H](CC(N)=O)NC(=O)[C@H](CC(C)C)NC(=O)CN)C(C)C)C(=O)N[C@@H](Cc1cnc[nH]1)C(=O)N[C@@H](CCC(=O)O)C(=O)N[C@@H](C)C(=O)N[C@H](C(=O)N[C@@H](CCCCN)C(=O)N[C@@H](CC(C)C)C(=O)N[C@H](C(=O)N[C@@H](CC(N)=O)C(=O)N[C@@H](CCCCN)C(=O)N[C@@H](Cc1cnc[nH]1)C(=O)N[C@H](C(=O)N[C@@H](CCC(N)=O)C(=O)O)C(C)C)[C@@H](C)CC)[C@@H](C)CC` [GLNALKKVFQGIHEAIKLINKHVQ] gave an MIC [2] of at least 80 µM and an MIC [3] of 20 µM (≈ 54 µg/mL).
For `CC(C)C[C@H](NC(=O)[C@@H](NC(=O)[C@H](CCCCN)NC(=O)[C@H](CO)NC(=O)[C@H](CC(C)C)NC(=O)[C@H](CC(C)C)NC(=O)[C@@H](NC(=O)[C@H](C)NC(=O)[C@H](CC(C)C)NC(=O)[C@H](Cc1ccccc1)NC(=O)[C@@H]1CCCN1C(=O)[C@H](CC(C)C)NC(=O)[C@@H](N)Cc1ccccc1)[C@@H](C)O)C(C)C)C(N)=O` [FLPFLATLLSKVL], the MIC [2] was at least 100 µM.
For `CC(C)C[C@H](NC(=O)[C@H](CCCCN)NC(=O)[C@H](CCCCN)NC(=O)[C@H](CC(C)C)NC(=O)[C@H](CC(C)C)NC(=O)[C@H](CCCCN)NC(=O)[C@H](CCCCN)NC(=O)[C@H](CC(C)C)NC(=O)[C@H](CC(C)C)NC(=O)[C@H](CCCCN)NC(=O)[C@H](CCCCN)NC(=O)[C@H](CC(C)C)NC(=O)[C@H](CC(C)C)NC(=O)CN)C(N)=O` [GLLKKLLKKLLKKL], the MIC [8] was 6 µM (≈ 9.81 µg/mL) and the MIC (Bacillus subtilis 168) was 2 µM (≈ 3.27 µg/mL).
Work on `CC[C@H](C)[C@H](NC(=O)[C@H](CCCCN)NC(=O)CNC(=O)[C@H](CC(C)C)NC(=O)[C@@H](NC(=O)[C@H](CCCCN)NC(=O)[C@H](CCCCN)NC(=O)[C@H](Cc1c[nH]c2ccccc12)NC(=O)[C@H](CC(N)=O)NC(=O)[C@@H](N)C(C)C)[C@@H](C)CC)C(N)=O` [VNWKKILGKI] yielded an MIC (Escherichia coli B) of 23.3 µM (≈ 27.9 µg/mL), an MIC (Pseudomonas aeruginosa) of 75 µM (≈ 89.8 µg/mL) and an MIC (Staphylococcus aureus) of over 100 µM. It also gave an MIC (Bacillus subtilis 168) of 4.7 µM (≈ 5.63 µg/mL).
With `CC(C)[C@H](NC(=O)[C@H](CCCCN)NC(=O)[C@H](Cc1c[nH]c2ccccc12)NC(=O)[C@H](CCCCN)NC(=O)[C@@H](NC(=O)[C@H](CCCCN)NC(=O)[C@H](Cc1c[nH]c2ccccc12)NC(=O)[C@H](CCCCN)NC(=O)[C@@H](NC(=O)[C@H](CCCCN)NC(=O)[C@@H](N)Cc1c[nH]c2ccccc12)C(C)C)C(C)C)C(=O)N[C@@H](CCCCN)C(N)=O` [WKVKWKVKWKVK] the MIC (Acinetobacter baumannii) was 1.41 µM (≈ 2.32 µg/mL), the MIC [4] was 2 µM (≈ 3.28 µg/mL) and the MIC (Pseudomonas aeruginosa) was 4 µM (≈ 6.57 µg/mL). It also gave an MIC [5] of 2 µM (≈ 3.28 µg/mL), an MIC [3] of 2 µM (≈ 3.28 µg/mL) and an MIC (Staphylococcus aureus) of 2 µM (≈ 3.28 µg/mL). For the same compound, the MIC [6] was 1 µM (≈ 1.64 µg/mL), the MIC [7] was 2 µM (≈ 3.28 µg/mL) and the MIC (Escherichia coli UB1005) was 2 µM (≈ 3.28 µg/mL). It also gave an MIC (Escherichia coli) of 1 µM (≈ 1.64 µg/mL).
Compound `CC[C@H](C)[C@H](NC(=O)[C@H](CCCCN)NC(=O)[C@H](CCCCN)NC(=O)[C@H](Cc1c[nH]c2ccccc12)NC(=O)[C@H](CC(N)=O)NC(=O)[C@@H](N)C(C)C)C(=O)N[C@@H](CC(C)C)C(=O)N[C@@H](CCCCN)C(=O)N[C@@H](CCCCN)C(=O)N[C@H](C(=O)N[C@H](C(=O)N[C@@H](CCCCN)C(=O)N[C@H](C(=O)N[C@H](C(=O)N[C@@H](CCCCN)C(N)=O)C(C)C)C(C)C)[C@@H](C)CC)[C@@H](C)CC` [VNWKKILKKIIKVVK] has an MIC (Escherichia coli B) of 0.7 µM (≈ 1.29 µg/mL), an MIC (Pseudomonas aeruginosa) of 26.1 µM (≈ 47.9 µg/mL) and an MIC (Staphylococcus aureus) of 9.6 µM (≈ 17.6 µg/mL). The MIC (Bacillus subtilis 168) was 0.7 µM (≈ 1.29 µg/mL).
In the case of `CC[C@H](C)[C@H](NC(=O)[C@H](Cc1cnc[nH]1)NC(=O)[C@H](CCCCN)NC(=O)[C@H](CC(C)C)NC(=O)[C@H](CC(C)C)NC(=O)[C@H](CO)NC(=O)[C@H](CCSC)NC(=O)[C@H](Cc1ccccc1)NC(=O)[C@H](CCCCN)NC(=O)CN)C(=O)N[C@@H](CC(C)C)C(=O)N[C@@H](CCCCN)C(N)=O` [GKFMSLLKHILK], the MIC (Escherichia coli B) was 5.8 µM (≈ 8.2 µg/mL), the MIC (Pseudomonas aeruginosa) was 30 µM (≈ 42.4 µg/mL) and the MIC (Staphylococcus aureus) was 43.3 µM (≈ 61.2 µg/mL). The MIC (Bacillus subtilis 168) was 1.5 µM (≈ 2.12 µg/mL).
With `CC[C@H](C)[C@H](NC(=O)[C@H](CCCN=C(N)N)NC(=O)[C@H](CCCN=C(N)N)NC(=O)[C@@H]1CCCN1C(=O)[C@@H]1CCCN1C(=O)[C@H](CCCN=C(N)N)NC(=O)[C@@H]1CCCN1C(=O)[C@H](Cc1cnc[nH]1)NC(=O)[C@@H]1CCCN1C(=O)[C@H](CC(C)C)NC(=O)[C@H](Cc1ccc(O)cc1)NC(=O)[C@@H]1CCCN1C(=O)[C@@H]1CCCN1C(=O)[C@H](CCCCN)NC(=O)[C@H](CC(=O)O)NC(=O)[C@@H](N)C(C)C)C(=O)N[C@@H](Cc1ccc(O)cc1)C(=O)N[C@@H](CC(N)=O)C(=O)N[C@@H](CCCN=C(N)N)C(N)=O` [VDKPPYLPHPRPPRRIYNR] the MIC (Escherichia coli JW0013) was 2.02 µM (≈ 4.8 µg/mL).
